In ChEMBL document CHEMBL3232969, “Structure-based design and synthesis of tricyclic IAP (Inhibitors of Apoptosis Proteins) inhibitors” (Bioorg Med Chem Lett, 2014):

Legend:
MDA-MB-231 = experiment: Growth inhibition of human MDA-MB-231 cells; format: functional
[1] = Aqueous solubility of the compound
Liver microsome = experiment: Intrinsic clearance in human liver microsomes; conditions: microsomes
[2] = (§1) Percentage unbound in human plasma; conditions: Fu
[3] = Lipophilicity, log D of the compound; conditions: octanol/water
Plasma = experiment: as §1
[4] = Inhibition of Cytochrome P450 (unknown origin); format: ADME; conditions: human
[5] = Intrinsic clearance in rat microsomes; format: ADME, Microsome
[6] = biological target: Voltage-gated inwardly rectifying potassium channel KCNH2 (Homo sapiens, UniProt Q12809); experiment: Inhibition of human ERG
Voltage-gated inwardly rectifying potassium channel KCNH2, sequence (Q12809 whole entry): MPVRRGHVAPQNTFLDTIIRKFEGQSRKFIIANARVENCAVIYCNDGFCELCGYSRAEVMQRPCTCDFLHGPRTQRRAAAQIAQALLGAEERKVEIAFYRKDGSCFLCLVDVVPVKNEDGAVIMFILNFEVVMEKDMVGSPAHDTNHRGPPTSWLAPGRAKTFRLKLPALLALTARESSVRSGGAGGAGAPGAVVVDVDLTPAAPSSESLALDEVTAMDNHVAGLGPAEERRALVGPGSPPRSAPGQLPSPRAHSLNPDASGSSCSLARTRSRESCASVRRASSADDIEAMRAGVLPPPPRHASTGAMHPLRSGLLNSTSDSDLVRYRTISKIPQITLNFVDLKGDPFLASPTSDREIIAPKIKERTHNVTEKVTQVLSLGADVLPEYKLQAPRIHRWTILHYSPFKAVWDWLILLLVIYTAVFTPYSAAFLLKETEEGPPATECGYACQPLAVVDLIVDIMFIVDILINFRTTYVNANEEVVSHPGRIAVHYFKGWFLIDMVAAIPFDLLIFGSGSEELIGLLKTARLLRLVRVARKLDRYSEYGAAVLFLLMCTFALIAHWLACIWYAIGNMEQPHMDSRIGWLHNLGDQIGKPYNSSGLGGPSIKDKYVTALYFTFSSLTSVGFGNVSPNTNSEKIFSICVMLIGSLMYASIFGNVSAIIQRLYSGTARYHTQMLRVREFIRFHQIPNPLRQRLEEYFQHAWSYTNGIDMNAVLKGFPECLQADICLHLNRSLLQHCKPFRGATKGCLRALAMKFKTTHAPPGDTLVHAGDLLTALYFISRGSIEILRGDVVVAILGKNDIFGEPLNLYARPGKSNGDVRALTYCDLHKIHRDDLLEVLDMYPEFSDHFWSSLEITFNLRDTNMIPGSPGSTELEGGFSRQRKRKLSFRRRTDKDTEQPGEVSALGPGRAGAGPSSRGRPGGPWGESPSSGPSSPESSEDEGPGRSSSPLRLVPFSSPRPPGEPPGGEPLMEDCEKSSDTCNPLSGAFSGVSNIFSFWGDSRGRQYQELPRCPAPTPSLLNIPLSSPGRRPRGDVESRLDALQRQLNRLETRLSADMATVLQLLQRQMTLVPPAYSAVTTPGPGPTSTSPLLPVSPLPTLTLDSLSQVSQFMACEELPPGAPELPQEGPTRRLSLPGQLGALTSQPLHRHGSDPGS

SMILES | GI50 (MDA-MB-231) | solubility [1] | CLH (Liver microsome) | fraction unbound [2] | logD ([3]; logD) | Fu (Plasma) | logD [3] | INH [4] | microsomal CLint [5] | INH [6]
C#CCOCC(C(=O)N1CC[C@@H]2C[C@@H]3CCC[C@H](NC(=O)[C@H](C)NC)C(=O)N3[C@@H]2C1)c1ccccc1 (stereo in doubt; 42) | 3.7 µM | > 1000 µM | 23 µL/min/mg | 0.14 | 0.6 |  |  |  |  | 
C#CCOCC(C(=O)N1CC[C@@H]2C[C@@H]3CCC[C@H](NC(=O)[C@H](C)NC)C(=O)N3[C@@H]2C1)c1ccccc1 (stereo in doubt; 43) | > 11 µM |  | 8.5 µL/min/mg |  |  | 17% | 0.8 |  |  | 
CN[C@@H](C)C(=O)N[C@H]1CCC[C@H]2C[C@H]3CCN(C(=O)C(OCC#CC#CCOC(C(=O)N4CC[C@@H]5C[C@@H]6CCC[C@H](NC(=O)[C@H](C)NC)C(=O)N6[C@@H]5C4)c4ccccc4)c4ccccc4)C[C@H]3N2C1=O (stereo in doubt; 53) | 0.01 µM | > 1000 µM |  | 0.051 | 1.8 |  |  | > 20 µM | 7 µL/min/mg | > 33 µM
